From patent publication US20240385195A1, “PEPTIDE FOR DETECTING CA125 AND USE THEREOF” (Ajou University Industry-Academic Cooperation Foundation, priority 2022, published 2024) come the findings set out here.

Assay [1] deals with T1, HE4 protein (Homo sapiens, UniProt Q14508).
T1 construct: purchased Sinobiological, PA, USA
T1 sequence (Q14508 31-124): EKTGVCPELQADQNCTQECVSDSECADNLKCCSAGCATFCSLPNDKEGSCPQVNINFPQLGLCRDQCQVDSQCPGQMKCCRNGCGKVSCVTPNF
Description: ELISA assay of binding affinity and specificity. Particulars: HRP-conjugated M13 antibody, TMB, FIG. 1. The procedure:
(§1) In order to evaluate the binding affinity and specificity of the discovered SEQ ID NO: 1 peptide to the CA125 protein, and the binding affinity and specificity of the SEQ ID NO: 2 peptide to HE4, ELISA assay was performed according to the manufacturer's instructions using CA125 protein (R&D Systems Inc, MN, USA), HE4 protein (Sinobiological, PA, USA), HRP-conjugated M13 antibody (Sinobiological, PA, USA), and TMB solution (Thermo Scientific, MA, USA). In addition, to measure the binding affinity Kd (dissociation constant), the discovered peptides of SEQ ID NO: 1 and SEQ ID NO: 2 were synthesized (Biostem, Suwon, Korea), CA125 protein and HE4 protein were each fluorescently labeled using Protein Labeling kit RED-NHS 2nd Generation (NanoTemper Technologies, Munich, Germany). Afterwards, the binding affinity between peptide and protein was measured using Monolith NT.115 (NanoTemper Technologies, Munich, Germany) according to the manufacturer's instructions.
In general terms: In an ELISA, binding on a coated surface is turned into a signal by an enzyme label.

The test system of assay [2] is CA125 protein. Description: ELISA assay of binding affinity and specificity. More on the design: species or system human. Particulars: HRP-conjugated M13 antibody, TMB, FIG. 1. The method, then:
as §1

No end group written: not given here.

LGSKPIN [SEQ ID NO: 2, LGSKPIN]: in assay [1], the “specific binding to HE4 protein” value was “specifically bound to the HE4 protein”.

For HTHGAARVPDHR [SEQ ID NO: 1], the “specific binding to CA125 protein” value in assay [2] is given as “specifically bound to the CA125 protein”.
